Measured values: ChEMBL document CHEMBL1150689, “New dihydroalkylhexenones from Lannea edulis” (J Nat Prod, 2003)
Calls of active or inactive are those of the source. No cut-off for these calls is given here.

Test: DPPH radical scavenging activity at 10 ug after 30 mins by TLC
Type: functional

Structure (SMILES)	Activity
CC/C=C/CCCCCCCCCCCCC[C@@]1(O)CC(=O)C=C[C@@H]1O	inactive
CC/C=C/CCCCCCCCCCCCCc1cccc(O)c1	Active
CC/C=C/CCCCCCCCCCCCCCC[C@@]1(O)CC(=O)C=C[C@@H]1O	inactive
CC/C=C/CCCCCCCCCCCCCCC[C@]1(O)CC(=O)C=C[C@@H]1O	inactive
